Data from patent US5641760A, “Method of treating candida infection” (Pence, Inc., priority 1994, dated 1997).

Legend:
[1] = system: Candida albicans strain #40 fimbriae (enriched fimbriae EF, 66 kDa fimbrial subunit/adhesin protein); assay: Thin-layer chromatography plate binding assay of fimbriae to glycosphingolipids; settings: 10 μg GSL per spot; 100 μg EF/ml; detected with mAb Fm16
Procedure: Bound fimbriae on the TLC plates were visualized with a Protein G affinity-purified anti-C. albicans fimbriae monoclonal antibody, Fm16, obtained from ascites tumor in Balb/c mice as described below and a goat anti-mouse IgG alkaline phosphatase. […] (Lane 2).
The thin-layer chromatography (TLC) plate binding assay was performed as described by Baker et al. (1) with minor modifications. Aluminum-backed silica gel Si60 high performance TLC plates (Merck Kieselgel Si60, no fluorescence indicator, E. Merck, Darmstadt, Germany) were cut to produce 8×2.5 cm plates which were chromatographed with 100% methanol to the top of the plate to remove impurities and the plates were air dried. Glycosphingolipids (GSLs) (10 μg of each GSL) were loaded 1.0 cm above the base of the plate. The following glycosphingolipids purchased from Sigma Co. (St. Louis, Mo.) were used: mono-sialoganglioside (M-GM1), asialoganglioside GM1 (asialo-GM1), asialoganglioside GM2 (asialo-GM2), lactosylcerebroside (LCS), ceramide trihexoside (CTH). GSLs were separated on the TLC plates in chloroform-methanol-water (65:35:8, v/v/v) and air dried. One set of plates was sprayed with 10% sulphuric acid in ethanol and heated at 100°-150° C. for 5-10 min to char the GSLs for visual detection, and the other set was used for the fimbrial binding assay. The four corners of the plate were bent to 90° and the remainder of the assay was done with the TLC plates inverted in all solutions and at room temperature in an incubator shaker (model G25 Gyroshaker, New Brunswick Scientific, New Jersey, U.S.A.) at 20 rpm agitation. The TLC plate was blocked with 50 mM tris-hydroxy-methyl aminomethane pH 7.5 containing 150 mM NaCl (TBS), 0.25% (w/v) gelatin, 3% (w/v) BSA, 5 mM EDTA and 0.05% (v/v) Nonidet P40 in a glass petri dish for 2 hr at room temperature. The blocking solution was aspirated and 10 ml of EF (100 μg EF/ml in 100 mM TBS, pH 7.5) was then added. The fimbriae were allowed to bind to GSLs for 2 hours at room temperature. The plates were gently washed (2×5 min) with 10 ml of 100 mM TBS containing 0.1% (v/v) Tween 20 (TBST). The murine anti-EF monoclonal antibody, Fm16, was diluted 1:200 with TBST and 10 ml was added to the TLC plates. The solution was incubated for 1 hour at room temperature. Unbound antibodies were removed by washing the plates with 10 ml of TBST (2×5 min). The plate was then incubated with 10 ml of goat anti-mouse immunoglobulin G alkaline phosphatase conjugate (Jackson Laboratories) diluted 1:5,000 with TBST for 1 hour at room temperature. The plates were washed (2×5 min.) with 10 ml of TBST. The alkaline phosphatase activity was localized with Nitro Blue Tetrazolium chloride (NBT) and 5-bromo-4-chloro-3-indolyl phosphate (BCIP) dissolved in 100 mM Tris buffer, pH 9.5 containing 100 mM NaCl and 5 mM MgCl2. Color development was quenched by rinsing the TLC plate with deionized water and submerging the plate into a 150 mM EDTA solution pH 8.0 for 3-5 min. The plates were air dried, stored in plastic in the dark until they were photographed.

[2] = system: Candida albicans strain #40 fimbriae (enriched fimbriae EF, 66 kDa fimbrial subunit/adhesin protein); assay: Inhibition of fimbriae binding to immobilized βGalNAc(1-4)βGal-BSA conjugate; settings: plates coated with 10 μg/ml conjugate
Procedure: Further experiments to determine the specificity of fimbrial binding to GSLs were carried out using a plate binding assay, as described above, but immobilizing on the plates a βGalNAc(1-4)βGal-BSA conjugate, synthesized from βGalNAc(1-4)βGal-O(CH2)8 COOCH3 (Sabesan and Lemieux), as described in Part B, above. The coupling ratio of disaccharide: BSA was 12:1. The protocol utilized for this assay was similar to that employed for the assessment of C. albicans fimbriae binding to GSLs except that the plates were coated with 100 μl/well of a 10 μg/ml solution of synthetic βGalNAc(1-4)βGal-BSA conjugate in 0.01M carbonate buffer, pH 9.5.
Using this assay, it was first determined that fimbriae bind to the βGalNAc(1-4)βGal-BSA conjugate in a saturable, concentration-dependent manner. FIGS. 12A and 12B show the results of experiments in which compounds were tested for ability to inhibit binding of fimbriae to the βGalNAc(1-4)βGal-BSA conjugate. The protocol used in this assay was similar to the one used in the GSL inhibition assay described above, except that the plates were coated with 100 μl/well of a 10 μg/ml solution of synthetic βGalNAc(1-4)βGal-BSA conjugate in 0.01M carbonate buffer, pH 9.5. As depicted in FIG. 12A, βGalNAc(1-4)βGal-methylester ("GalNAcGal") was able to inhibit binding to the GalNAcGal-BSA conjugate in a concentration dependent manner. […]

Substance	Binding of C. albicans fimbriae to glycosphingolipid on TLC plate [1]	Concentration required for half-maximal inhibition of fimbriae binding to βGalNAc(1-4)βGal-BSA conjugate [2] [µg/mL]
ceramide trihexoside [CTH, ceramide trihexoside [aGal(1-4)βGal(1-4)βGlc(1-1)Cer]]	failed to bind	–
gangliotetraosylceramide: βGal(1-3)βGalNAc(1-4)βGal(1-4)βGlc(1-1)Cer [asialo-GM1]	bind specifically	7.5
